The results in this text go back to ChEMBL document CHEMBL3991601, “The target landscape of clinical kinase drugs” (Science, 2017).

Calls of active or inactive are those of the source. A value given as a limit tells only on which side of the number the result lay.

Assay [1] addresses Aurora kinase B (Homo sapiens, UniProt Q96GD4).
In assay [2] the target is Serine/threonine-protein kinase MRCK gamma (Homo sapiens, UniProt Q6DT37).
The target of assay [3] is DnaJ homolog subfamily A member 1 (Homo sapiens, UniProt P31689).
The target of assay [4] is G protein-coupled receptor kinase 6 (Homo sapiens, UniProt P43250).
Assay [5] has as its target T1, Mitogen-activated protein kinase kinase kinase kinase 2 (Homo sapiens, UniProt Q12851).
T1 sequence (Q12851 whole entry): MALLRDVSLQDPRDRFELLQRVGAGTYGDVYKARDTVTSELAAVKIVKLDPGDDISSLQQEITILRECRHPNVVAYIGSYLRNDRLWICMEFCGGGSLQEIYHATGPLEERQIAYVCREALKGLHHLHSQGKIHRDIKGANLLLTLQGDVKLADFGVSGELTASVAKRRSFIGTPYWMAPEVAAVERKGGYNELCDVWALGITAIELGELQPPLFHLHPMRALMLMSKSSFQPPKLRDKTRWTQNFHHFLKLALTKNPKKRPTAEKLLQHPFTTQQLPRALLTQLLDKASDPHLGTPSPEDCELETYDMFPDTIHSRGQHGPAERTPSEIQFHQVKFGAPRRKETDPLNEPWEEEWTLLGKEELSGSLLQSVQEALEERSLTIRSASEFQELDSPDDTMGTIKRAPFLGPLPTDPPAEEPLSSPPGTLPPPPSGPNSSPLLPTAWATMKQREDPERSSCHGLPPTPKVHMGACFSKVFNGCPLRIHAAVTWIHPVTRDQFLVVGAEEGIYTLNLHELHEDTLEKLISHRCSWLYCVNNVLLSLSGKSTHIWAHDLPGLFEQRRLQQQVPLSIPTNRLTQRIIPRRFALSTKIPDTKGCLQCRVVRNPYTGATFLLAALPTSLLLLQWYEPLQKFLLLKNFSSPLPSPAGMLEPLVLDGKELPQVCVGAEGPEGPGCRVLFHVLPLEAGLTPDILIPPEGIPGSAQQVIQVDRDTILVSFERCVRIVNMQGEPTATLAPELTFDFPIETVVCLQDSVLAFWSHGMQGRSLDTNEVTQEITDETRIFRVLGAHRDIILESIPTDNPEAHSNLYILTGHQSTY

The target of assay [6] is Mitogen-activated protein kinase 3 (Homo sapiens, UniProt P27361).
In assay [7] the target is Myosin-14 (Homo sapiens, UniProt Q7Z406).
Assay [8] addresses NADH dehydrogenase [ubiquinone] 1 alpha subcomplex subunit 13 (Homo sapiens, UniProt Q9P0J0).
Assay [9] concerns the target T2, Serine/threonine-protein kinase NLK (Homo sapiens, UniProt Q9UBE8).
T2 sequence (Q9UBE8 whole entry): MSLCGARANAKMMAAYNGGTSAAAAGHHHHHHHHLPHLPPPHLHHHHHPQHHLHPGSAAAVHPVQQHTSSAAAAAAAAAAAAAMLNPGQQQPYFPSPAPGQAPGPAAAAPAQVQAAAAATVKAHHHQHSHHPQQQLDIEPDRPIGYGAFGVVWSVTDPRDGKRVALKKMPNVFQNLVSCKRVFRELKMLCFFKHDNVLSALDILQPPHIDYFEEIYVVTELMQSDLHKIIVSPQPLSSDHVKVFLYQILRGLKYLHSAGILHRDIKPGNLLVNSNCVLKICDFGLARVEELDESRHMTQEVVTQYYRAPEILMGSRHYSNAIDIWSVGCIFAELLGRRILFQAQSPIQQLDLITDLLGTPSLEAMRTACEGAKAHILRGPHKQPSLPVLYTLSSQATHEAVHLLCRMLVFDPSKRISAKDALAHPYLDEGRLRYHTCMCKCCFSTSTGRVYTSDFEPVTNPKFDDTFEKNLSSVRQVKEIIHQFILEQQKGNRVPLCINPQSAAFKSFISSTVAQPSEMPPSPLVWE

For assay [10], the target named is T3, Ribosyldihydronicotinamide dehydrogenase [quinone] (Homo sapiens, UniProt P16083).
T3 sequence (P16083 whole entry): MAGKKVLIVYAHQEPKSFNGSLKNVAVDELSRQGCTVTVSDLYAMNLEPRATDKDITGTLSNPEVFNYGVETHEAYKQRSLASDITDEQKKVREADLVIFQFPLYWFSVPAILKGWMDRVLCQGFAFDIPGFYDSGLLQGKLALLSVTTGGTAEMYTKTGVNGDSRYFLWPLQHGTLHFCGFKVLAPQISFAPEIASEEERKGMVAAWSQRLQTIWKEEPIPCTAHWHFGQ

The target of assay [11] is Serine/threonine-protein kinase PAK 4 (Homo sapiens, UniProt O96013).
Assay [12] has as its target 26S proteasome regulatory subunit 6B (Homo sapiens, UniProt P43686).
The target of assay [13] is Protein-tyrosine kinase 2-beta (Homo sapiens, UniProt Q14289).
Assay [14] addresses DNA topoisomerase 2-alpha (Homo sapiens, UniProt P11388).
Assay [15] deals with T4, Serine/threonine-protein kinase STK11 (Homo sapiens, UniProt Q15831).
T4 sequence (Q15831 whole entry): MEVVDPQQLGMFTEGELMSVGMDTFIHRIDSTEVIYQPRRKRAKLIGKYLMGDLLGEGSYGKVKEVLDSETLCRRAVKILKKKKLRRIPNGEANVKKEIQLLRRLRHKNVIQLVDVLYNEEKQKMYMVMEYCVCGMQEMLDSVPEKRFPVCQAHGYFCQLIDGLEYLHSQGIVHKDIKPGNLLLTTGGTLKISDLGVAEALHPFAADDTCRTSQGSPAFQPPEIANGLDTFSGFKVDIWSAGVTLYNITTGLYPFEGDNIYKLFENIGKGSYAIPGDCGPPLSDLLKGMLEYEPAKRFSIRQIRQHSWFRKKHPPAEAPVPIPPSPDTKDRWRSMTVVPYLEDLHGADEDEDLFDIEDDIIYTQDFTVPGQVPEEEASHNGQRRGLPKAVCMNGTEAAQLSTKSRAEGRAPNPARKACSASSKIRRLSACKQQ
Further: in the data inactive means no Kd found up to 30 µM.

Sequence of DnaJ homolog subfamily A member 1 (P31689 whole entry): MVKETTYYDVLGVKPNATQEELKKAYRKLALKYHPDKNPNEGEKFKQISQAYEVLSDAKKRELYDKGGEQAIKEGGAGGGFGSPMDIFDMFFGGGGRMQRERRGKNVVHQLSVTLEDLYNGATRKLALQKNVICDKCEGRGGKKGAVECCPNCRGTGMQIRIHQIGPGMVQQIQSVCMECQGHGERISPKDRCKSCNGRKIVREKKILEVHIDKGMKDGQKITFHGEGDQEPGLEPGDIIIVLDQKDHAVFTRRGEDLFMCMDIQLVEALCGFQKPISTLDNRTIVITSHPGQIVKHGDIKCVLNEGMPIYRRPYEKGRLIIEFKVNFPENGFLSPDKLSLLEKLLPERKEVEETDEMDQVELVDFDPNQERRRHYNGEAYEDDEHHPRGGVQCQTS
Sequence of Protein-tyrosine kinase 2-beta (Q14289 whole entry): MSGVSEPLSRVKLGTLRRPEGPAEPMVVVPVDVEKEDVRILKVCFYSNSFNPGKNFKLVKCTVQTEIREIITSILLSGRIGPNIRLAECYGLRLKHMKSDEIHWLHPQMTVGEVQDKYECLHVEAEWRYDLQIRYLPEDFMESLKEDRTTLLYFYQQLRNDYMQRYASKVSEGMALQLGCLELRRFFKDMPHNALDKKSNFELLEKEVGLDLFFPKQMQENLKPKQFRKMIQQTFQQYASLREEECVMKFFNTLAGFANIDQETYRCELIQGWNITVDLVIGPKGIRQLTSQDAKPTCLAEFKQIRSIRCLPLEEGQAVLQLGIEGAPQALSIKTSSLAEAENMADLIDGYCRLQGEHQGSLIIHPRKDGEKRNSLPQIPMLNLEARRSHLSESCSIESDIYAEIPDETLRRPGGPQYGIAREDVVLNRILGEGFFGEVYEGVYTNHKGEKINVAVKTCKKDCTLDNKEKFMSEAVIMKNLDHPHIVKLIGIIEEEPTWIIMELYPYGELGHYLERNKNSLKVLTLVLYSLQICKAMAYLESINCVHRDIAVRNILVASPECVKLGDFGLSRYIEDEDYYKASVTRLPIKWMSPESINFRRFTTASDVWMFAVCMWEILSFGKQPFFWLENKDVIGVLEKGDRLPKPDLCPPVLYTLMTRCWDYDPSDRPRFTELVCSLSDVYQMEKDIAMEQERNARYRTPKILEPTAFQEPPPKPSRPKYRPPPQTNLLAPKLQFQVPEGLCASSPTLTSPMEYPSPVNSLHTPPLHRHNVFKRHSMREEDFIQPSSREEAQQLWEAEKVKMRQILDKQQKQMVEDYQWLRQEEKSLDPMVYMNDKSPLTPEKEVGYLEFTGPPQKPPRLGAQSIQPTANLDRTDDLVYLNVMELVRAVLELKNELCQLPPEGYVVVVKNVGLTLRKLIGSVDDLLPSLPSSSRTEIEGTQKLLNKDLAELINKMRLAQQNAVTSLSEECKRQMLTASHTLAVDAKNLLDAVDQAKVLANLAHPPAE
Sequence of 26S proteasome regulatory subunit 6B (P43686 whole entry): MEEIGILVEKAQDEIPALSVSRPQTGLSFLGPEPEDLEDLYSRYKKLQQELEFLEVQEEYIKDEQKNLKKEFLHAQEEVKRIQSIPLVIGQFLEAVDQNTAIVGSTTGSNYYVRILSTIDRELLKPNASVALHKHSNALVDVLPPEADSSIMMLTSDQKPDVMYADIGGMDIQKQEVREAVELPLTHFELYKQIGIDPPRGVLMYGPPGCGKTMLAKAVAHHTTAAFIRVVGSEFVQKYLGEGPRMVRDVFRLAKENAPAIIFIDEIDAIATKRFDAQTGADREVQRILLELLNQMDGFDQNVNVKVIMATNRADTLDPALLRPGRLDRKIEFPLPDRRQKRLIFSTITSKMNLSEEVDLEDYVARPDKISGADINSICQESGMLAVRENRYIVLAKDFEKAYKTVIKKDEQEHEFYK
Sequence of NADH dehydrogenase [ubiquinone] 1 alpha subcomplex subunit 13 (Q9P0J0 whole entry, one chain of several): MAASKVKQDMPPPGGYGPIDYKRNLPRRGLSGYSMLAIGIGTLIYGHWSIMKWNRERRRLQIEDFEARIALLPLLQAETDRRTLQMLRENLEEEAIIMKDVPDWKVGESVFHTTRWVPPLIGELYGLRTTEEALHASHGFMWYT
Sequence of Serine/threonine-protein kinase MRCK gamma (Q6DT37 whole entry): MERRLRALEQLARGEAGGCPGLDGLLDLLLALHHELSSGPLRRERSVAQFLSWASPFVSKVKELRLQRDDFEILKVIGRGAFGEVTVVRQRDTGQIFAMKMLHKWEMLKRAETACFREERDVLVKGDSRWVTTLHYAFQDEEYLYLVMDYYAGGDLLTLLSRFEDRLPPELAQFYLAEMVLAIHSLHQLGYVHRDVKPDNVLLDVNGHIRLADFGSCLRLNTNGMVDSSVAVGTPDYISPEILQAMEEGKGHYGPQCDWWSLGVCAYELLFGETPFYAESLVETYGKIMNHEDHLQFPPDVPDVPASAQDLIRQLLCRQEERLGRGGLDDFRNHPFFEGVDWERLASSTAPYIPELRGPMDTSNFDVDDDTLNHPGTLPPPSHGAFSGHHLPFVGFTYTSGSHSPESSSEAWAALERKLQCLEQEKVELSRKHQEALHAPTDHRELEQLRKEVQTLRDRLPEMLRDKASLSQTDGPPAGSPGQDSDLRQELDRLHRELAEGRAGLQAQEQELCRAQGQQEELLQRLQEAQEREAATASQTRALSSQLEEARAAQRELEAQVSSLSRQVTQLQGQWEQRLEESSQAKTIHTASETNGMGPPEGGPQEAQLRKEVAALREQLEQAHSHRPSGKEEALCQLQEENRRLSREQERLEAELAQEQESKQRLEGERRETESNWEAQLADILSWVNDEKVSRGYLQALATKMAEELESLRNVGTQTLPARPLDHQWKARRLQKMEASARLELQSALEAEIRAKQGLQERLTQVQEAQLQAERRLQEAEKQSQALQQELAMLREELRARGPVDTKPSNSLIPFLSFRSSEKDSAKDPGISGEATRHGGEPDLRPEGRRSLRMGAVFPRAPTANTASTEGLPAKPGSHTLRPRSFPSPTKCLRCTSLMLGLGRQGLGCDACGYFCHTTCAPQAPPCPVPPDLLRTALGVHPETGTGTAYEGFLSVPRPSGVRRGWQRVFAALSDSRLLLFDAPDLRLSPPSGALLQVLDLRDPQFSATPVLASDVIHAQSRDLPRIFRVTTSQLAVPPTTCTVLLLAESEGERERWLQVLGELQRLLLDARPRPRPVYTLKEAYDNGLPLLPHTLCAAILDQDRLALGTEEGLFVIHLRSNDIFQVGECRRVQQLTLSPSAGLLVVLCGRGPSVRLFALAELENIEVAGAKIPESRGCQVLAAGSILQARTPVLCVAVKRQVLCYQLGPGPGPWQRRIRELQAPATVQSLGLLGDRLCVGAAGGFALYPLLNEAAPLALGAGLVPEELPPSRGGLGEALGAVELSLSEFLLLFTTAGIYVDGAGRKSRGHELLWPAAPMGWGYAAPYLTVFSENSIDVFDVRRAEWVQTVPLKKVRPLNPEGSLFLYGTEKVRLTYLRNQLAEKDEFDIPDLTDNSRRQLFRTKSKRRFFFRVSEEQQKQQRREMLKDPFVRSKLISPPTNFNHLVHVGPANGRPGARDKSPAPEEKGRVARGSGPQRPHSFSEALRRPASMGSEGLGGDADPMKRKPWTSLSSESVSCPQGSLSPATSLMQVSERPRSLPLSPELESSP
Sequence of Serine/threonine-protein kinase PAK 4 (O96013 whole entry): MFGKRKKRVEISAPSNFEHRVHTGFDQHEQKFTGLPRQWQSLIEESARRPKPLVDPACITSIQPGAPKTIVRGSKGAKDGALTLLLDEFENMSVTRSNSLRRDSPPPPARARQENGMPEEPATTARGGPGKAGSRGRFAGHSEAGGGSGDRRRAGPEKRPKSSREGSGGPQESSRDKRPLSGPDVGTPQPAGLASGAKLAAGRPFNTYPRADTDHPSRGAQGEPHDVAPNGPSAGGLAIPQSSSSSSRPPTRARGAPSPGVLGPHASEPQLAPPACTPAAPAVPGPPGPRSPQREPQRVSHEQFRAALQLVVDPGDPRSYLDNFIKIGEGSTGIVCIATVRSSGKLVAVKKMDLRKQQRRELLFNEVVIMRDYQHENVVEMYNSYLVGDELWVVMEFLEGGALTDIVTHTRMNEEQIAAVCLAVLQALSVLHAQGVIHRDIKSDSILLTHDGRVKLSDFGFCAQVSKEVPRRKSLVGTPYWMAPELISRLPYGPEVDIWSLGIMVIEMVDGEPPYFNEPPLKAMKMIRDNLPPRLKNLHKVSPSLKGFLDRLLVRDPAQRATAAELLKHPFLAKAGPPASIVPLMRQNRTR
Sequence of Mitogen-activated protein kinase 3 (P27361 whole entry): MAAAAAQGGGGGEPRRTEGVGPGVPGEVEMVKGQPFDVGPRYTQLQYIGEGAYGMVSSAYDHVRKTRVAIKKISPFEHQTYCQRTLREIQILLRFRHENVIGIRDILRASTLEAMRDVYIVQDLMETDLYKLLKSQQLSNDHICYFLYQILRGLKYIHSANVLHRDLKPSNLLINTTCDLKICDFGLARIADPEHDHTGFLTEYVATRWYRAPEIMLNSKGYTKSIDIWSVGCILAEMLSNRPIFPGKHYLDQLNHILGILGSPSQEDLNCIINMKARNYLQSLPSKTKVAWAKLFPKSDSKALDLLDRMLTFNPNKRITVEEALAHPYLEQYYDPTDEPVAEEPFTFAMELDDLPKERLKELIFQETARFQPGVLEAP
Sequence of Aurora kinase B (Q96GD4 whole entry): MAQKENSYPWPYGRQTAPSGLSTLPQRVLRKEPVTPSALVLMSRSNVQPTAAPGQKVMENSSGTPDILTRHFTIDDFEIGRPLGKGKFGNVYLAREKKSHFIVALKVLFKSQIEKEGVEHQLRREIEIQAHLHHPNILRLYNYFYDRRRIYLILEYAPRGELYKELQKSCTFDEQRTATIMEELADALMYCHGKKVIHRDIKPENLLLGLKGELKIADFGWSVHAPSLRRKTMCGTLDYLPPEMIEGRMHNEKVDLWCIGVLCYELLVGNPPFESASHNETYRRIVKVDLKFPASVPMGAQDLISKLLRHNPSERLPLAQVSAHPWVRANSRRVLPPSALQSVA

For orientation: Kd means a measure of binding affinity in units of concentration. On to `C[C@@H](Oc1cc(C(=O)Nc2ccc(C(=O)N3CCN(C)CC3)cc2)nnc1N)c1c(Cl)ccc(F)c1Cl`, for which the Kd in assay [1] is > 30 µM (inactive); in assay [2] it was > 30 µM (inactive); in [3], > 30 µM (inactive); in [4] it was > 30 µM (inactive); in [5] it was 0.122 µM (active); in assay [6], > 30 µM (inactive). Further, the Kd in [7], in [8], in assay [9], in assay [10], in assay [11] and in [12] was > 30 µM (inactive) in each case. For the same molecule, the Kd in assay [13] and in [14] was > 30 µM (inactive) in each case.
With `Nc1ncnc2c1c(-c1cccc(OCc3ccccc3)c1)cn2[C@H]1C[C@@H](CN2CCC2)C1` [AEW-541], the Kd is > 30 µM (inactive) in [1]; > 30 µM (inactive) in [2]; > 30 µM (inactive) in [3]; > 30 µM (inactive) in assay [4]; 4.58 µM (active) in assay [5]; > 30 µM (inactive) in assay [6]. In addition, the Kd in assay [7], in assay [8], in assay [9], in assay [10], in assay [11] and in [12] was > 30 µM (inactive) in each case. Moreover, the Kd in [13], in assay [15] and in assay [14] was > 30 µM (inactive) throughout.
Turning to `Cc1cc(Nc2ncc(Cl)c(Nc3ccccc3S(=O)(=O)C(C)C)n2)c(OC(C)C)cc1C1CCNCC1` [CERITINIB], the Kd in assay [1], in assay [2], in assay [3], in [4], in assay [5] and in assay [6] was > 30 µM (inactive) in each case. In addition, the Kd in [7], in assay [8], in assay [9], in [10], in assay [11] and in [12] was > 30 µM (inactive) each time. Also, the Kd in assay [13] is 18.4 µM (active); in [15], > 30 µM (inactive); in assay [14], > 30 µM (inactive).
For `O=C(Nc1cc(C(F)(F)F)cc(C(F)(F)F)c1)c1cc(Cl)ccc1O` [IMD-0354], the Kd in [1], in assay [2], in assay [3], in assay [4], in [5] and in [6] was > 30 µM (inactive) each time. Besides, the Kd in [7], in [8], in assay [9], in assay [10], in assay [11] and in assay [12] was > 30 µM (inactive) throughout. In addition, the Kd in [13], in [15] and in assay [14] was > 30 µM (inactive) in each case.
As for `FC(F)(F)c1ccc(/C=C/c2nc(COc3ccc(CCCCn4ccnn4)cc3)co2)cc1` [MUBRITINIB], the Kd in assay [1], in assay [2], in assay [3], in assay [4], in assay [5] and in assay [6] was > 30 µM (inactive) throughout. The Kd in assay [7], in assay [8], in [9], in [10], in assay [11] and in assay [12] was > 30 µM (inactive) throughout. The Kd in [13], in [15] and in assay [14] was > 30 µM (inactive) throughout.
